Test [1] has as its system global transcription. The note with it: low-dose FP; Lu et al. Mol Cancer Ther (2004); cited from earlier work.
Test [2] concerns HSV-1 17syn+ ocular infection. Nature of the test: HSV-1 ocular infection mouse model, combined clinical score (epiphora, inflammation, discharge). The format is in vivo, Balb/c mice. The note with it: 1% TFT, 0.01% flavopiridol, 0.1% DRB drops. As to the method: The combined clinical score was determined based on epiphora (excess tearing), inflammation and discharge. […], +1=slight manifestations, +2=moderate manifestations, and +3=severe manifestations.
All experimental procedures were performed in accordance with the ARVO Resolution for the Use of Animals in Ophthalmic and Vision Research and were approved by the Xavier University Animal Care and Use Committee. Female 20 g Balb/c mice were obtained from Charles River Laboratories. Mice were allowed to equilibrate to their surroundings for 2 weeks and then were anesthetized by intramuscular administration of xylazine (6.6 mg/kg of body weight) and ketamine (100 mg/kg of body weight). The corneas were mildly scarified in a 2×2 cross-hatch pattern and each cornea was inoculated with 5×10^5 PFU of strain HSV 17syn+. […] DNA was collected by swabbing the eyes with filter paper, and the eyes were examined with a slit-lamp on PI days 2, 4, 7, 9, 11, 14, 18 and 25. Average neovascularization/eye was scored using the formula A=(C×0.4×L×π)/2 where C=clock hours of neovascularization; 30° arc is 1 (360° circle with a total of 12); L is the length of the longest neovessel, and A is the area of neovascularization. Students scored (by eye) the animals on the days indicated in a masked fashion using the slit-lamp, and images representative of each group were taken. Clinical scores based on epiphora, inflammation and discharge were calculated where 0=no manifestations, +1=slight manifestations, +2=moderate manifestations, and +3=severe manifestations. Mice were sacrificed with CO2 on day 25 post-infection, and eyes were harvested, sectioned, stained with hematoxylin and eosin (H&E) for histological analysis based on peripheral neovascularization and leukocytic infiltration where 0=clear eyes, 0.5=either peripheral neovascularization or leukocytic infiltration, and 1=both peripheral neovascularization and leukocytic infiltration. Ex ovo chick embryo chorioallantoic membrane collagen angiogenesis assays were performed using methods as previously described (Deryugina E I and Quigley J P. Chapter 2. Chick embryo chorioallantoic membrane models to quantify angiogenesis induced by inflammatory and tumor cells or purified effector molecules. Methods Enzymol. 444:21-41. 2008). Briefly, fertilized embryos (Charles River Laboratories, Charleston, S.C.) were incubated at 37.5° C. for 3 days, removed from their shell using a Dremel tool and placed into a covered weighing boat for 7 further days of incubation. […] Four collagen onplants were added per egg on at least 3 separate eggs. After three additional days of incubation, images were taken of each plug using a mini-Vid camera (LW Scientific; Lawrenceville, Ga.) and quantified in a masked fashion based on the percentage of grids that were positive for newly formed blood vessels.
FIG. 1B is the combined clinical score for the treatment groups based on epiphora (excess tearing), inflammation, and discharge.

Test [3] deals with HSV-1 17syn+ induced corneal neovascularization. Nature of the test: HSV-1 corneal neovascularization mouse model, slit-lamp examination score. Particulars: day 25 post infection; drops 4 times daily for 14 days; 1% TFT, 0.01% flavopiridol, 0.1% DRB; n=10. It counts as in vivo, Balb/c mice. The procedure: Corneal neovascularization was determined in a masked fashion by slit lamp analysis on days 2, 4, 7, 9, 11, 14, 18, and 25 post-infection (PI) with 5×10^5 PFU/eye of HSV-1 17syn+ using the formula A=(C×0.4×L×n)/2 where C=clock hours of neovascularization; 30° arc is 1 (360° circle with a total of 12); L is the length of the longest neovessel, and A is the area of neovascularization.
All experimental procedures were performed in accordance with the ARVO Resolution for the Use of Animals in Ophthalmic and Vision Research and were approved by the Xavier University Animal Care and Use Committee. Female 20 g Balb/c mice were obtained from Charles River Laboratories. Mice were allowed to equilibrate to their surroundings for 2 weeks and then were anesthetized by intramuscular administration of xylazine (6.6 mg/kg of body weight) and ketamine (100 mg/kg of body weight). The corneas were mildly scarified in a 2×2 cross-hatch pattern and each cornea was inoculated with 5×10^5 PFU of strain HSV 17syn+. […] Average neovascularization/eye was scored using the formula A=(C×0.4×L×π)/2 where C=clock hours of neovascularization; 30° arc is 1 (360° circle with a total of 12); L is the length of the longest neovessel, and A is the area of neovascularization. Students scored (by eye) the animals on the days indicated in a masked fashion using the slit-lamp, and images representative of each group were taken. Clinical scores based on epiphora, inflammation and discharge were calculated where 0=no manifestations, +1=slight manifestations, +2=moderate manifestations, and +3=severe manifestations. […] Ex ovo chick embryo chorioallantoic membrane collagen angiogenesis assays were performed using methods as previously described (Deryugina E I and Quigley J P. Chapter 2. Chick embryo chorioallantoic membrane models to quantify angiogenesis induced by inflammatory and tumor cells or purified effector molecules. Methods Enzymol. 444:21-41. 2008). […]
This was assessed with the dose and frequency that was used in the chemotherapeutic study of HSV-1 corneal neovascularization. […]

In the case of `CN1CC[C@H](c2c(O)cc(O)c3c(=O)cc(-c4ccccc4Cl)oc23)[C@H](O)C1` [flavopiridol], the “block of global transcription” value in test [1] is “does not block global transcription”. In addition, the figures for the “combined clinical score (epiphora, inflammation, discharge; 0 to +3)” value in test [2] (day 11) and in test [2] (day 25) were 0.169±0.248 and 0.039±0.177, respectively. Further, in test [3], the “slit-lamp examination (SLE) score of corneal neovascularization” value turned out to be 0.039±0.176.

The values above are taken from patent US20180200279A1, “INHIBITION OF HSV-1-ASSOCIATED CORNEAL NEOVASCULARIZATION USING INHIBITORS OF CYCLIN-DEPENDENT KINASE 9” (XAVIER UNIVERSITY OF LOUISIANA, priority 2014, published 2018).
